Source: patent US12642781B2, “Adenomyosis associated infertility and hdac inhibitors” (NADEZHDA REPRODUCTIVE SCIENCE OOD, priority 2020, dated 2026)

What was measured:
adenomyosis lesions = assay: Clinical treatment of women with adenomyosis: lesion assessment by 2D/3D ultrasound, MRI and colour Doppler; format: in vivo
Procedure: A 100 mg/ml solution of sodium valproate for injection or infusion was prepared.
This solution is drawn in 5 ml Luer lock syringe and administrated in the lesion(s) through special needle. We have used—OPU needle 18G, with echo tip and length at least 15 cm. The solution was administered in the ultrasound-guided manner in all visible lesions. The access was through the vagina.
(§1) Intralesional application must start with the lesions located closest to the cavum uteri, in the so-called junctional zone, because these have the strongest influence on fertility. The procedure is performed under short-term intravenous anesthesia to ensure patient comfort and immobility during application; patients report no pain after anesthesia wear off.
The first oral dose must be taken between 9 h and 16 h after the end of intralesion application in order to achieve a steady state in patient plasma.
Sodium valproate 500 mg prolonged-release tablets were used.
To eliminate operator bias, all TVUS scans of the same patient at baseline and after start of treatment were performed by the same specialist on the same ultrasound machine.
There were tested 37 women with adenomyosis and a history of infertility and/or abortions.

[1] = system: adenomyosis associated infertility; assay: Pregnancy outcome of IVF after the treatment regimen; format: in vivo, women
Procedure: Sodium valproate 500 mg prolonged-release tablets were used. […] There were tested 37 women with adenomyosis and a history of infertility and/or abortions. […] One month after End of Treatment, a new IVF cycle is ready to be started, and pregnancies are followed up to full term birth. […] Pregnancy rate was measured and is described below in Table 6: […]

[2] = Safety and tolerability of the treatment regimen (safety lab blood tests, adverse events); format: in vivo, women
Procedure: as §1
The safety lab panel included liver function tests (AST, ALT, LDH), as well as complete blood count.

[3] = after the first two months of oral VPA following intralesional VPA administration

CCCC(CCC)C(=O)O [VPA, valproic acid]
response of lesions to treatment (adenomyosis lesions; 37 women with adenomyosis and a history of infertility and/or abortions): Some of the lesions disappeared completely and some of them were significantly reduced in size | central vascularity of lesions (Colour Doppler) (adenomyosis lesions; [3]): absent | reduction in size of lesion dimensions (ultrasound) (adenomyosis lesions; [3]): up to 2 fold | progression of adenomyosis (adenomyosis lesions; monthly follow-up for three months after end of treatment): no progression of adenomyosis was observed | Observed Prop. (Binomial Test, Pregnancy CODE 1.00) ([1]; Group 2, N 13 of 37, Test Prop. .8, Exact Sig. (1-tailed) .023): .4 | pregnancy terminations, or uterine obstetric complications during C-Section ([1]; in vivo): No pregnancy terminations, or uterine obstetric complications during C-Section | pregnancy rate ([1]; new IVF cycle one month after End of Treatment, results up to date): 85% | healthy full-term babies ([1]; results up to date): 10 | patients who reported dizziness and stopped oral VPA intake ([2]; 1000 mg VPA daily oral): 2 | pain after intralesional application ([2]; after anesthesia wear off): no pain | safety lab results (AST, ALT, LDH, complete blood count) ([2]; before start and every 30 days till end of treatment): in normal range
